Results from patent US4824843A, “Substituted amide inhibitors of cholesterol absorption” (Warner-Lambert Company, priority 1987, dated 1989).
Where a name gives a salt, the structure may show the parent alone.

What follows are molecules tested against T1, acyl-CoA: cholesterol acyltransferase (ACAT) (Oryctolagus cuniculus, UniProt G1SFD9) (assay: In vitro inhibition of cholesterol esterification by ACAT (cholesteryl oleate formation), rabbit intestinal microsomal fraction). Details: endogenous cholesterol of rabbit intestinal microsomal fraction and exogenous 14C-oleoyl-CoA; read-out: IC50 (concentration of test compound required to inhibit cholesteryl oleate formation to 50% of control).
T1 construct: rabbit intestinal microsomal fraction; from tissue; host or cells: rabbit intestinal microsomal fraction
T1 sequence (G1SFD9 1-524): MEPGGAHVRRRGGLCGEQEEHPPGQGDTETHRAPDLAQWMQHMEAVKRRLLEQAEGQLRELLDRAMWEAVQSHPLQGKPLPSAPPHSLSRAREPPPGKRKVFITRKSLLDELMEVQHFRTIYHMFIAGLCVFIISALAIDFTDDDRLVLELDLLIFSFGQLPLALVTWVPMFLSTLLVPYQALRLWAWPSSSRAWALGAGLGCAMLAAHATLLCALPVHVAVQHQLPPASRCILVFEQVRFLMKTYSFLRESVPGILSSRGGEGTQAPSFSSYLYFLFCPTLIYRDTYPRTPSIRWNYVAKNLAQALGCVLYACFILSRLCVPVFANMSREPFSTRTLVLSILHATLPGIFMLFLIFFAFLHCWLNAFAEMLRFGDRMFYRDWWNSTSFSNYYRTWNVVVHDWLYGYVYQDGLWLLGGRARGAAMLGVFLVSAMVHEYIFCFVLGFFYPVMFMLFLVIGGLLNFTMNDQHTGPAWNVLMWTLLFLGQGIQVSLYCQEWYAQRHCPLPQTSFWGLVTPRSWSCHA
Format: biochemical
Experimental: The compounds of the present invention were tested for their ability to inhibit the esterification of cholesterol by the enzyme acyl-CoA: cholesterol acyltransferase (ACAT). The data in the table below is expressed as IC50 values, i.e. the concentration of test compound required to inhibit cholesteryl oleate formation to 50% of control.
The in vitro test employed is more fully described in Field, F. J. and Salome, R. G., Biochemica et Biophysica Acta, 712, pp. 557-570 (1982). The assay evaluates the ability of a test compound to inhibit the esterification of cholesterol using endogenous cholesterol of a rabbit intestinal microsomal fraction and exogenous ^14 C-oleoyl-CoA as reactants.

Structure (SMILES) | IC50 [µM]
COc1ccc(/C=C/C2=NC(C)(C)CO2)cc1NC(=O)C(C)(C)CCCOc1cc(C)ccc1C [Example 2b, (E)-N-[5-[2-(4,5-Dihydro-4,4-dimethyl-2-oxazolyl)ethenyl]-2-methoxyphenyl]-5-(2,5-dimethylphenoxy)-2,2-dimethylpentanamide] | 8
Cc1ccc(C)c(OCCCC(C)(C)C(=O)Nc2cccc(C3=NCCO3)c2C)c1 [Example 1c, N-[3-(4,5-Dihydro-2-oxazolyl)-2-methylphenyl]-5-(2,5-dimethylphenoxy)-2,2-dimethylpentanamide] | 10
COc1ccc(NC(=O)C(C)(C)CCCOc2cc(C)ccc2C)cc1CCC1=NC(C)(C)CO1 [Example 2, N-[3-[2-(4,5-Dihydro-4,4-dimethyl-2-oxazolyl)ethyl]-4-methoxyphenyl]-5-(2,5-dimethylphenoxy)-2,2-dimethylpentanamide] | 3.7
COc1ccc(C2=NC(C)(C)CO2)cc1NC(=O)C(C)(C)CCCOc1cc(C)ccc1C [Example 4b, N-[5-(4,5-Dihydro-4,4-dimethyl-2-oxazolyl)-2-methoxyphenyl]-5-(2,5-dimethylphenoxy)-2,2-dimethylpentanamide] | 9
Cc1ccc(C)c(OCCCC(C)(C)C(=O)Nc2cccc(-c3ncco3)c2)c1 [Example 4h, 5-(2,5-Dimethylphenoxy)-2,2-dimethyl-N-[3-(2-oxazolyl)phenyl]-pentanamide] | 23
COc1ccc(C2=NCCCO2)cc1NC(=O)C(C)(C)CCCOc1cc(C)ccc1C [Example 4f, N-[5-(5,6-Dihydro-4H-1,3-oxazin-2-yl)-2-methoxyphenyl]-5-(2,5-dimethylphenoxy)-2,2-dimethylpentanamide] | 18
COC(=N)c1cccc(NC(=O)C(C)(C)CCCOc2cc(C)ccc2C)c1 [Example 4g, 5-(2,5-Dimethylphenoxy)-N-[3-(iminomethoxymethyl)phenyl]-2,2-dimethylpentanamide monohydrochloride] | 13
Cc1ccc(C)c(OCCCC(C)(C)C(=O)Nc2cccc(C3=NC(C)(C)CO3)c2)c1 [Example 1a, N-[3-(4,5-Dihydro-4,4-dimethyl-2-oxazolyl)phenyl]-5-(2,5-dimethylphenoxy)-2,2-dimethylpentanamide] | 22
Cc1ccc(C)c(OCCCC(C)(C)C(=O)Nc2cc(C3=NC(C)(C)CO3)ccc2C)c1 [Example 1b, N-[5-(4,5-Dihydro-4,4-dimethyl-2-oxazolyl)-2-methylphenyl]-5-(2,5-dimethylphenoxy)-2,2-dimethylpentanamide] | 5.5
Cc1ccc(C)c(OCCCC(C)(C)C(=O)Nc2cccc(C=CC3=NC(C)(C)CO3)c2)c1 [Example 2a, N-[3-[2-(4,5-Dihydro-4,4-dimethyl-2-oxazolyl)ethenyl]phenyl]-5-(2,5-dimethylphenoxy)-2,2-dimethylpentanamide] | 9.4
Cc1ccc(C)c(OCCCC(C)(C)C(=O)Nc2cccc(OCC3=NC(C)(C)CO3)c2)c1 [Example 3a, N-[3-[(4,5-Dihydro-4,4-dimethyl-2-oxazolyl)methoxy]phenyl]-5-(2,5-dimethylphenoxy)-2,2-dimethylpentanamide] | 9.2
COc1ccc(CC2=NC(C)(C)CO2)cc1NC(=O)C(C)(C)CCCOc1cc(C)ccc1C [Example 3, N-[5-[(4,5-Dihydro-4,4-dimethyl-2-oxazolyl)methyl]-2-methoxyphenyl]-5-(2,5-dimethylphenoxy)-2,2-dimethylpentanamide] | 5.5
COc1ccc(NC(=O)C(C)(C)CCCOc2cc(C)ccc2C)cc1C1=NC(C)(C)CO1 [Example 4d, N-[3-(4,5-Dihydro-4,4-dimethyl-2-oxazolyl)-4-methoxyphenyl]-5-(2,5-dimethylphenoxy)-2,2-dimethylpentanamide] | 19
Cc1ccc(C)c(OCCCC(C)(C)C(=O)Nc2cccc(C3=NCCCO3)c2)c1 [Example 4, N-[3-(5,6-Dihydro-4H-1,3-oxazin-2-yl)phenyl]-5-(2,5-dimethylphenoxy)-2,2-dimethylpentanamide] | 20
Cc1ccc(C)c(OCCCC(C)(C)C(=O)Nc2cccc(-c3nnc(C)o3)c2)c1 [Example 5, 5-(2,5-dimethylphenoxy)-2,2-dimethyl-N-[3-(5-methyl-1,3,4-oxadiazol-2-yl)phenyl]pentanamide] | 21
Cc1ccc(C)c(OCCCC(C)(C)C(=O)Nc2ccc(C)c(CC3=NC(C)(C)CO3)c2)c1 [Example 1d, N-[3-[(4,5-Dihydro-4,4-dimethyl-2-oxazolyl)methyl]-4-methylphenyl]-5-(2,5-dimethylphenoxy)-2,2-dimethylpentanamide] | 1
COc1cc(OC)c(C2=NC(C)(C)CO2)cc1NC(=O)C(C)(C)CCCOc1cc(C)ccc1C [Example 4e, N-[5-(4,5-Dihydro-4,4-dimethyl-2-oxazolyl)-2,4-dimethoxyphenyl]-5-(2,5-dimethylphenoxy)-2,2-dimethylpentanamide] | 9
Cc1ccc(C)c(OCCCC(C)(C)C(=O)Nc2cccc(C3=NC(C)(C)CO3)c2C)c1 [Example 1, N-[3-(4,5-Dihydro-4,4-dimethyl-2-oxazolyl)-2-methylphenyl]-5-(2,5-dimethylphenoxy)-2,2-dimethylpentanamide] | 24
Cc1ccc(C)c(OCCCC(C)(C)C(=O)Nc2cc(CC3=NC(C)(C)CO3)ccc2C)c1 [Example 3b, N-[5-[(4,5-Dihydro-4,4-dimethyl-2-oxazolyl)methyl]-2-methylphenyl]-5-(2,5-dimethylphenoxy)-2,2-dimethylpentanamide] | 0.8
